Results published in patent publication US20140200134A1, “Anthranilamide Compounds and their use as Pesticides” (BASF SE, priority 2011, published 2014).

Key:
Assay type in all cases: in vivo
[1] = system: Boll weevil (Anthonomus grandis); assay: Boll weevil microtiter plate diet test; settings: 120 h, sprayed onto insect diet, egg and larval mortality after 5 days, read-out: mortality in comparison with untreated controls
Description: B.8 Boll weevil (Anthonomus grandis)
For evaluating control of boll weevil (Anthonomus grandis) the test unit consisted of 96-well-microtiter plates containing an insect diet and 20-30 A. grandis eggs.
(§1) The compounds were formulated using a solution containing 75% v/v water and 25% v/v DMSO. Different concentrations of formulated compounds were sprayed onto the insect diet at 5 μl, using a custom built micro atomizer, at two replications.
After application, microtiter plates were incubated at about 25±1° C. and about 75±5% relative humidity for 5 days. Egg and larval mortality was then visually assessed.

[2] = system: Cowpea aphid (aphis craccivora); assay: Cowpea aphid spray test on potted cowpea plants; settings: sprayed cowpea plants, assessed after 72 hours, read-out: mortality in comparison with untreated controls
Description: B.1 Cowpea aphid (aphis craccivora)
The active compound was dissolved at the desired concentration in a mixture of 1:1 (vol:vol) distilled water:acetone. Surfactant (Alkamuls® EL 620) was added at a rate of 0.1% (vol/vol). The test solution was prepared at the day of use.
Potted cowpea plants were colonized with approximately 50-100 aphids of various stages by manually transferring a leaf tissue cut from infested plant 24 hours before application. Plants were sprayed after the pest population had been recorded. Treated plants were maintained on light carts at about 28° C. Percent mortality was assessed after 72 hours.

[3] = system: Tobacco budworm (Heliothis virescens); assay: Tobacco budworm foliar spray test on cotton plants; settings: 96 h, sprayed cotton plants, larvae, 4 days after treatment, read-out: mortality in comparison with untreated controls
Description: B.7 Tobacco budworm (Heliothis virescens) I
(§2) The active compounds were formulated in cyclohexanone as a 10,000 ppm solution supplied in tubes. The tubes were inserted into an automated electrostatic sprayer equipped with an atomizing nozzle and they served as stock solutions for which lower dilutions were made in 50% acetone:50% water (v/v). A nonionic surfactant (Kinetic®) was included in the solution at a volume of 0.01% (v/v).
Cotton plants were grown 2 plants to a pot and selected for treatment at the cotyledon stage. Test solutions were sprayed onto the foliage by an automated electrostatic plant sprayer equipped with an atomizing spray nozzle. The plants were dried in the sprayer fume hood and then removed from the sprayer. Each pot was placed into perforated plastic bags with a zip closure. About 10 to 11 budworm larvae were placed into the bag and the bags zipped closed. Test plants were maintained in a growth room at about 25° C. and about 20-40% relative humidity for 4 days, avoiding direct exposure to fluorescent light (24 hour photoperiod) to prevent trapping of heat inside the bags. Mortality and reduced feeding were assessed 4 days after treatment, compared to untreated control plants.

[4] = system: Orchid thrips (dichromothrips corbetti); assay: Orchid thrips floral-immersion test; settings: dipped orchid flowers, adult thrips, 72 hours after treatment, read-out: mortality in comparison with untreated controls
Description: B.4 Orchid thrips (dichromothrips corbetti)
Dichromothrips corbetti adults used for bioassay were obtained from a colony maintained continuously under laboratory conditions. For testing purposes, the test compound was diluted in a 1:1 mixture of acetone:water (vol:vol), plus 0.01% vol/vol Alkamuls® EL 620 surfactant.
Thrips potency of each compound was evaluated by using a floral-immersion technique. Plastic petri dishes were used as test arenas. All petals of individual, intact orchid flowers were dipped into treatment solution and allowed to dry. Treated flowers were placed into individual petri dishes along with about 20 adult thrips. The petri dishes were then covered with lids. All test arenas were held under continuous light and a temperature of about 28° ° C. for duration of the assay. After 3 days, the numbers of live thrips were counted on each flower, and along inner walls of each petri dish. The percent mortality was recorded 72 hours after treatment.

[5] = system: Green Peach Aphid (Myzus persicae); assay: Green peach aphid spray test on bell pepper plants; settings: 120 h, sprayed infested bell pepper plants, after 5 days, read-out: mortality in comparison with untreated controls
Source text: B.9 Green Peach Aphid (Myzus persicae)
as §2
Bell pepper plants at the first true-leaf stage were infested prior to treatment by placing heavily infested leaves from the main colony on top of the treatment plants. Aphids were allowed to transfer overnight to accomplish an infestation of 30-50 aphids per plant and the host leaves were removed. The infested plants were then sprayed by an automated electrostatic plant sprayer equipped with an atomizing spray nozzle. The plants were dried in the sprayer fume hood, removed, and then maintained in a growth room under fluorescent lighting in a 24-hr photoperiod at about 25° C. and about 20-40% relative humidity. Aphid mortality on the treated plants, relative to mortality on untreated control plants, was determined after 5 days.

[6] = system: Diamond back moth (plutella xylostella); assay: Diamond back moth cabbage leaf-dip test; settings: dipped cabbage leaves, 3rd instar larvae, 72 hours after treatment, read-out: mortality in comparison with untreated controls
Description: B.2 Diamond back moth (plutella xylostella)
The active compound was dissolved at the desired concentration in a mixture of 1:1 (vol:vol) distilled water:acteone. Surfactant (Alkamuls® EL 620) was added at a rate of 0.1% (vol/vol). The test solution was prepared at the day of use.
Leaves of cabbage were dipped in test solution and air-dried. Treated leaves were placed in petri dishes lined with moist filter paper and inoculated with ten 3rd instar larvae. Mortality was recorded 72 hours after treatment. Feeding damages were also recorded using a scale of 0-100%.

[7] = system: Mediterranean fruitfly (Ceratitis capitata); assay: Mediterranean fruitfly microtiter plate diet test; settings: 120 h, sprayed onto insect diet, egg and larval mortality after 5 days, read-out: mortality in comparison with untreated controls
Description: B.3 Mediterranean fruitfly (Ceratitis capitata)
For evaluating control of Mediterranean fruitfly (CeratitiS capitate) the test unit consisted of microtiter plates containing an insect diet and 50-80 C. capitata eggs.
as §1
After application, microtiter plates were incubated at about 28±1° C. and about 80±5% relative humidity for 5 days. Egg and larval mortality was then visually assessed.

[8] = system: Vetch aphid (Megoura viciae); assay: Vetch aphid broad bean leaf disk microtiter test; settings: foliar, 120 h, sprayed broad bean leaf disks, adult aphids, 5 days, read-out: mortality in comparison with untreated controls
Description: B.6 Vetch aphid (Megoura viciae)
For evaluating control of vetch aphid (Megoura viciae) through contact or systemic means the test unit consisted of 24-well-microtiter plates containing broad bean leaf disks. The compounds were formulated using a solution containing 75% v/v water and 25% v/v DMSO. Different concentrations of formulated compounds were sprayed onto the leaf disks at 2.5 μl, using a custom built micro atomizer, at two replications.
After application, the leaf disks were air-dried and 5-8 adult aphids placed on the leaf disks inside the microtiter plate wells. The aphids were then allowed to suck on the treated leaf disks and incubated at about 23±1° C. and about 50±5% relative humidity for 5 days. Aphid mortality and fecundity was then visually assessed.

CNC(=O)c1cc(/C=N/OC)cc(C)c1NC(=O)c1ccc(C(F)(F)F)cc1-c1ncccc1Cl [Compound 1-1, 2-[[2-(3-chloro-2-pyridyl)-4-(trifluoromethyl)benzoyl]amino]-5-[(E)-methoxyiminomethyl]-N,3-dimethyl-benzamide]
> 75%: mortality at 2500 ppm [1] | mortality at 500 ppm [2] | mortality at 2500 ppm [3] | mortality at 500 ppm [4] | mortality at 2500 ppm [5] | mortality at 500 ppm [6] | mortality at 2500 ppm [7] | mortality at 2500 ppm [8]

CNC(=O)c1cc(-n2cncn2)cc(C)c1NC(=O)c1ccc(C(F)(F)F)cc1-c1ncccc1Cl [Compound 1-2, 2-[[2-(3-chloro-2-pyridyl)-4-(trifluoromethyl)benzoyl]amino]N,3-dimethyl-5-(1,2,4-triazol-1-yl)benzamide]
> 75%: mortality at 2500 ppm [1] | mortality at 500 ppm [2] | mortality at 2500 ppm [3] | mortality at 500 ppm [4] | mortality at 2500 ppm [5] | mortality at 2500 ppm [7] | mortality at 2500 ppm [8]

CNC(=O)c1cc(/C=N/NC(N)=O)cc(C)c1NC(=O)c1ccc(C(F)(F)F)cc1-c1ncccc1Cl [Compound 1-3, 5-[(E)-(carbamoylhydrazono)methyl]-2-[[2-(3-chloro-2-pyridyl)-4-(trifluoromethyl)benzoyl]amino]-N,3-dimethyl-benzamide]
> 75%: mortality at 500 ppm [2] | mortality at 2500 ppm [3] | mortality at 2500 ppm [5]
